Source: US20130190169A1, “SYNERGISTIC FUNGICIDAL COMBINATION” (priority 2010, published 2013)

Test system: strain Mg Ref 1 of M. graminicola
Assay: In vitro evaluation of the sensitivity level of M. graminicola towards epoxiconazole and folpet alone or in admixture (mycelial growth by optical density, 96-well microtitre plate, Wadley method)
Format: cell-based, Mycosphaerella graminicola
Details: Zymoseptoria tritici, 168 h, fungicide used alone, 7 days, 19° C., OD 405 nm
Method: The Wadley method is well-known method for determining whether synergy exists. In the Wadley method, synergistic activity is determined from dose response curves. With this method, the efficacy of the active ingredient (“a.i.”) is determined by comparing the degree of fungal attack on treated plants with that on untreated, similarly inoculated and incubated check plants. Each a.i. is generally tested at multiple (e.g., 6) concentrations, and dose response curves are generated. The dose response curves are used to establish the EC50 (i.e., the effective concentration of a.i. providing 50% disease control) of the individual compounds as well as of the combinations (EC50observed). The experimentally found values of the mixture at a given weight ratio are compared ith the values that would have been found were only a complementary efficacy of the components was present (EC50 (A+B)expected). The EC50 (A+B)expected is generally calculated according to Wadley (Levi et al., EPPO-Bulletin 16, 1986, 651-657) or (Wadley, F. M., U.S. Dep. Agric., Res. Adm., Bur. Entomol. And Plant Quar. ET-223, 1945, 8) as follows:
EC50(A+B)expected−(a+b)/[(a/EC50(A)observed)+b/EC50(B)observed)] […]
The degree of mycelial growth in the liquid medium was assessed by measuring the optical density of the wells containing the spore suspensions and fungicide concentrations. […]

Row | Compound | EC50 [µg/mL]
1 | Fc1ccc([C@]2(Cn3cncn3)O[C@H]2c2ccccc2Cl)cc1 (racemic) [Epoxiconazole, (2RS;3SR)-1-[3-(2-chlorophenyl)-2,3-epoxy-2-(4-fluorophenyl)propyl]-1H-1,2,4-triazole] | 0.01
2 | O=C1c2ccccc2C(=O)N1SC(Cl)(Cl)Cl [Folpet, N-(trichloromethanesulfenyl)phthalimide] | 2.39
